Test results published in patent US8394971B2, “Indole derivatives as selective androgen receptor modulators (SARMS)” (Janssen Pharmaceutica N.V., priority 2004, dated 2013).
Where “and” joins values, the source holds several entries; their conditions need not be identical. Equal values may be shown once.

Legend:
[1] = target: T1, androgen receptor (adenovirus AdEasy+rAR in L929 cells) (Rattus norvegicus, UniProt P15207); test: L929 Androgen Receptor Functional Assay, Adenovirus Transduction; assay type: cell-based; details: for % Activity: L929 agonist testing; for inhibition at 3 µM: L929, L929 antagonist testing with R1881
T1 construct: expressed in transfected cells
T1 sequence (P15207 1-902): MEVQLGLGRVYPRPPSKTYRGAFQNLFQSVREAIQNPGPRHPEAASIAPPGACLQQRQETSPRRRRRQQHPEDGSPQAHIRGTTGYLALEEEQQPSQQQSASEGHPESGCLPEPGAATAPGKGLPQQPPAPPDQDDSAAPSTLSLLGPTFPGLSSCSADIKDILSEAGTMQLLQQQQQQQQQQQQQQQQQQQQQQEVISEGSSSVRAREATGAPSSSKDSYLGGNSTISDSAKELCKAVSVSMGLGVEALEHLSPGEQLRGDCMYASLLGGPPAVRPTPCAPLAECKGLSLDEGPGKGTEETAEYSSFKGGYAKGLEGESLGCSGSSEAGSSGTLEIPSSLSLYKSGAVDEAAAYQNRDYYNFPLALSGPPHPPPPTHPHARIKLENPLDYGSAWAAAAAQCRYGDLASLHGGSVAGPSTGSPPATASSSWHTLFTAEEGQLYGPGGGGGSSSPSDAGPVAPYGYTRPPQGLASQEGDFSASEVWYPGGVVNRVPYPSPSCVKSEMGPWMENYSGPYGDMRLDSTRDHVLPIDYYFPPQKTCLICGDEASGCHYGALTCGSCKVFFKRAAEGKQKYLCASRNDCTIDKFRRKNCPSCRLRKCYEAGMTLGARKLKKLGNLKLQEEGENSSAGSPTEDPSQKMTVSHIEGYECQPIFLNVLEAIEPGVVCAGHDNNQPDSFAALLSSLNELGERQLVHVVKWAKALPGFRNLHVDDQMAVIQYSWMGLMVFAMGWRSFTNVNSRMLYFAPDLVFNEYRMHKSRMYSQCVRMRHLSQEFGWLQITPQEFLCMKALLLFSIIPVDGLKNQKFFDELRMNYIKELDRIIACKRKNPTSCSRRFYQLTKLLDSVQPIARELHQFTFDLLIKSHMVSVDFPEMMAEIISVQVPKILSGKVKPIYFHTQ
Protocol: L929 cells were plated in 96-well plates at 20,000 cells per well, in DMEM/F12 (GIBCO) containing 10% (v/v) charcoal-treated fetal bovine serum (Hyclone) and lacking phenol red. The plates were then incubated overnight at 37° C. in 5% (v/v) humidified CO2.
Test compound dilutions were prepared in 100% (v/v) DMSO, if necessary. Each dilution was made to 1250× the final desired assay concentration.
First, 2 mL of DMEM/F12 lacking phenol red was pipetted into the wells of a 2-mL 96-well assay block. Next, 4 μL of the 1250× test compound dilutions were pipetted into each well of the assay block. The mixtures within the well were then carefully mixed by pipette.
In a 15 mL or 50 mL sterile centrifuge tube, a 2.5 nM (2.5×) dilution of R1881 (methyl-trienolone) in DMEM/F12 lacking phenol red was prepared.
In a second 15 mL or 50 mL centrifuge tube a solution containing an equal volume of DMEM to the first and an equal volume of 100% (v/v) DMSO to the volume of R1881 used in the first tube was prepared.
In a 15 mL or 50 mL sterile centrifuge tube, a dilution in DMEM/F12 of the adenovirus AdEasy+rAR at an moi of 1:500 per well was prepared.
The medium was removed from the 96-well plates by inversion and dried, inverted, very briefly. As soon as possible after medium removal, 40 μL of the diluted unlabeled test compound was added to each well, in duplicate. To each well designated for antagonist testing was added 40 μL of the 2.5 nM R1881 dilution to the wells for antagonist testing. To each well designated for agonist testing was added 40 μL of the DMSO dilution. Then 20 μL of the diluted adenovirus were added to all wells. The plates were incubated for 48 hours at 37° C. in 5% (v/v) humidified CO2.
To each well was added 100 μL of Steady-Glo luciferase assay substrate (Promega) and the plates were placed on a rotary shaker for 1 min. The plates were then incubated at room temperature in the dark for one hour. The contents of each well were then transferred to a white microtiter plate (Packard) and read on a Luminoskan Ascent (Thermo Lab Systems).
L929 AR percent activity was determined by testing dilutions of the test compound using a concentration of 3000 nM unless otherwise noted. L929 percent inhibition was determined by testing dilutions of the test compound using a concentration of 3000 nM. […] Luciferase activity per well were measured and EC50s and IC50s determined by linear regression.

[2] = system: testosterone-enhanced ventral prostate and seminal vesicle weights in castrated male Sprague Dawley rats; test: Ventral Prostate and Seminal Vesicle Weight In Vivo Assay; design: species or system rat; details: immature castrated rats; once daily for five days, usually orally at 40 mg/kg, with testosterone propionate 2 mg/kg s.c.
Method in brief: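 Immature (~50 g) castrated Sprague Dawley rats dosed once daily for five days with compound (usually oral, 40 mg/kg, cyclodextrin or methylcellulose vehicle) plus testosterone propionate 2 mg/kg s.c. Wet ventral prostate and seminal vesicle weights taken on day six; activity judged by prostate weight or body-weight-adjusted % inhibition.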

[3] = target: T2, androgen receptor (adenovirus AdEasy+rAR in COS-7 cells) (Rattus norvegicus, UniProt P15207); test: COS-7 Whole-Cell Androgen Receptor Binding Assay, Adenovirus Transduction; details: COS binding; 3000 nM unless otherwise noted
T2 construct: expressed in transfected cells
T2 sequence (P15207 1-902): T1 sequence (P15207 1-902)
Protocol: COS-7 cells were plated in 96-well plates at 20,000 cells per well, in a solution of DMEM/F12 (GIBCO) containing 10% (v/v) charcoal-treated fetal bovine serum (Hyclone) and lacking phenol red. The cells were then incubated overnight at 37° C. in 5% (v/v) humidified CO2.
Test compound solutions were prepared by diluting the test compound in 100% (v/v) DMSO, if necessary.
Next, 1 mL of DMEM/F12 lacking phenol red was pipetted into each of the wells of a 2-mL 96-well assay block. […] The wells were carefully mixed by pipette.
In a 15 mL or 50 mL sterile centrifuge tube, a dilution in DMEM/F12 of the adenovirus AdEasy+rAR at a moi of 1:50 per well was prepared.
The medium was removed from the 96-well plates by inversion and the plates dried very briefly, inverted, on a sterile towel. As soon as possible after medium removal, 40 μL of the diluted test compound was added to each well, in duplicate. […] The plates were then incubated for 48 hours at 37° C. in 5% (v/v) humidified CO2.
The medium was removed from the above incubated plates by inversion and dried. Each well was then washed with 0.35 mL of 1×PBS. The PBS was then removed from the plates by inversion and the plates dried.
To each well was then added 50 μL of 0.5% (v/v) Triton X-100 (Sigma) in 1×PBS and the plates placed on a rotary shaker for 5 min. The contents of each well were then transferred to an OptiPlate-96 (Packard) scintillation plate. To each well was then added 0.2 mL of Microscint-20 (Packard) and the wells counted on a TopCount (Packard).
[…] Counts per well were measured and percents of inhibition determined. […] Counts per well were measured and IC50s determined by linear regression.

Structure (SMILES)	% Activity ([1]; 3000 nM) [%]	active / inactive (inhibition of testosterone-enhanced prostate weight) [2]	% Inhibition [3]	inhibition at 3 µM ([1]; 3000 nM) [%]	% Activity ([1]; 3000 nM, 3 µM)	% Activity ([1]; @ 8000 nM)	inhibition at 3 µM [3] [%]
C[S+]([O-])CCC(C)(O)c1cc2cc([N+](=O)[O-])c(C(F)(F)F)cc2[nH]1 (mixture of isomers) [compound 50]	2	inactive	7%	–	–	–	–
CCSCC(C)(O)c1cc2cc([N+](=O)[O-])c(C(F)(F)F)cc2[nH]1 (racemic) [compound 142]	–	active	90%	78	0%	–	–
CCSCC(C)(O)c1cc2cc([N+](=O)[O-])c(C(F)(F)F)cc2n1C (racemic) [compound 165]	–	active	69%	–	1%	–	–
CCSCC(C)(O)c1cc2cc(F)c(Cl)cc2[nH]1 (racemic) [compound 206]	5	active	−40%	–	–	–	–
CCSCC(C)(O)c1cc2cc(C#N)c(C(F)(F)F)cc2[nH]1 (single isomer, unassigned) [Compound #217, 2-(2-Ethylsulfanyl-1-hydroxy-1-methyl-ethyl)-6-trifluoromethyl-1H-indole-5-carbonitrile]	5	active	38% and 69%	87	–	0 @ 8000 nM %	–
CCS(=O)(=O)CC(C)(O)c1cc2cc(C#N)c(C(F)(F)F)cc2[nH]1 (single isomer, unassigned) [Compound #222, 2-(2-Ethanesulfonyl-1-hydroxy-1-methyl-ethyl)-6-trifluoromethyl-1H-indole-5-carbonitrile]	–	active	–	–	–	0 @ 8000 nM %	42
CCSCC(C)(O)c1[nH]c2cc(C(F)(F)F)c(C#N)cc2c1C (single isomer, unassigned) [Compound #233, 2-(2-Ethylsulfanyl-1-hydroxy-1-methyl-ethyl)-3-methyl-6-trifluoromethyl-1H-indole-5-carbonitrile]	–	active	95% and 81%	–	0%	–	–
CCSCC(C)(O)c1[nH]c2cc(C(F)(F)F)c(C#N)cc2c1C (single isomer, unassigned) [Compound #234, 2-(2-Ethylsulfanyl-1-hydroxy-1-methyl-ethyl)-3-methyl-6-trifluoromethyl-1H-indole-5-carbonitrile]	–	inactive	71%	–	−1%	–	–
CCS(=O)(=O)CC(C)(O)c1[nH]c2cc(C(F)(F)F)c(C#N)cc2c1C (single isomer, unassigned) [Compound #251, 2-(2-Ethanesulfonyl-1-hydroxy-1-methyl-ethyl)-3-methyl-6-trifluoromethyl-1H-indole-5-carbonitrile]	−1	active	85%	90	–	–	–
CC(O)(CSCC(F)(F)F)c1cc2cc([N+](=O)[O-])c(C(F)(F)F)cc2[nH]1 (single isomer, unassigned) [compound 202]	–	active	50%	–	1%	–	–
CCSCC(C)(O)c1cc2cc([N+](=O)[O-])c(C(F)(F)F)cc2n1C (single isomer, unassigned) [compound 231]	–	active	78%	–	0% and −1%	–	73
CC(O)(CS(=O)(=O)c1ccc(O)cc1)c1cc2cc(Cl)c(C(F)(F)F)cc2[nH]1 (stereo not shown) [compound 121]	−4	–	–	–	–	–	72
CC(O)(CSc1ccc([N+](=O)[O-])cc1)c1cc2cc(Cl)c(C(F)(F)F)cc2[nH]1 (stereo not shown) [compound 122]	10	–	–	–	–	–	66
COc1ccc(S(=O)(=O)CC(C)(O)c2cc3cc(Cl)c(C(F)(F)F)cc3n2S(C)(=O)=O)cc1 (stereo not shown) [compound 128]	−4	–	–	–	–	–	21
CC(O)(CSc1ccc(C(=O)O)cc1)c1cc2cc(Cl)c(C(F)(F)F)cc2n1S(C)(=O)=O (stereo not shown) [compound 132]	−5	–	–	–	–	–	8.7
CC(O)(CSc1ccc(C(=O)O)cc1)c1cc2cc(Cl)c(C(F)(F)F)cc2[nH]1 (stereo not shown) [compound 133]	−4	–	–	–	–	–	65
CC(O)(CS(C)(=O)=O)c1cc2cc(Cl)c(C(F)(F)F)cc2n1S(C)(=O)=O (stereo not shown) [compound 137]	0	–	–	–	–	–	73
CC(O)(CS(C)(=O)=O)c1cc2cc([N+](=O)[O-])c(C(F)(F)F)cc2[nH]1 (stereo not shown) [compound 147]	0	–	6.1%	–	–	–	–
CC(O)(CS(C)(=O)=O)c1cc2cc([N+](=O)[O-])c(C(F)(F)F)cc2[nH]1 (stereo not shown) [compound 148]	0	–	32%	–	–	–	–
CCS(=O)(=O)CC(C)(O)c1cc2cc([N+](=O)[O-])c(C(F)(F)F)cc2[nH]1 (stereo not shown) [compound 151]	–	–	55%	–	–	−1 @ 8000 nM %	–
CCSCC(C)(O)c1cc2cc(C#N)c(Cl)cc2[nH]1 (stereo not shown) [compound 225]	1	–	–	–	–	–	82
